Values of other authors in patent publication US6043276A (Georgetown University School of Medicine, priority 1999, dated 2000).

Experiments:
[1] = test system: integrase protein of HIV-1; conditions: Fesen et al.; Burke et al.; Mazumder et al.; cited from earlier work
xanthine oxidase = conditions: Chan et al. 1995; Chang et al. 1994; cited from earlier work
RT for HIV = conditions: Kreis et al. 1990; cited from earlier work
HIV = conditions: literature; cited from earlier work
[2] = Lin et al. 1996; cited from earlier work

## O=C(/C=C/c1ccc(O)c(O)c1)OCCc1ccccc1 [CAPE, Caffeic acid phenethyl esters]
[1]
  inhibitory activity on the integrase protein of HIV-1: exert inhibitory activity

## O=C(O)/C=C/c1ccc(O)c(O)c1 [Caffeic acid]
Xanthine oxidase
  xanthine oxidase inhibition: inhibit xanthine oxidase
RT for HIV
  antiviral activity, RT assay for HIV: has antiviral activity

## O=C(/C=C/c1ccc(O)c(O)c1)O[C@H](Cc1ccc(O)c(O)c1)C(=O)O [Rosemarinic acid]
HIV
  anti-HIV activity: possesses anti-HIV activity

## O=C(/C=C/c1ccc(O)c(O)c1/C=C/c1ccc(O)c(O)c1)O[C@H](Cc1ccc(O)c(O)c1)C(=O)O [salvianolic acid A]
[2]
  antioxidant properties: antioxidant properties

## acetylsalvianolic acid
[2]
  antioxidant properties: antioxidant properties
